The values that follow come from PubChem BioAssay (NCI).

Test systems include LOX IMVI melanoma; SF-539 CNS; SK-OV-3 ovarian; 786-0 renal; MOLT-4 leukemia; SF-295 CNS; IGROV1 ovarian; A549 NSCLC; UO-31 renal; OVCAR-3 ovarian.
Holding throughout (assay): NCI tumour cell line growth inhibition, 48 h

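Test compounds were applied to cells in 96-well plates for 48 hours at 5 doses. Abbreviation: GI50, concentration required for 50% inhibition of growth. At the TGI there is no net growth.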 Some results are limits rather than exact numbers.

`CSC1C(=O)Nc2ccc3ccccc3c21` (stereo unspecified): the TGI is 31 µM in the test on LOX IMVI melanoma; 45.7 µM with SF-539 CNS; greater than 100 µM in the test with SK-OV-3 ovarian; 32.6 µM in the test with 786-0 renal; greater than 100 µM with MOLT-4 leukemia; greater than 100 µM in the test with SF-295 CNS. Further, the TGI in the test with IGROV1 ovarian is 33.3 µM; in the test with A549 NSCLC it was greater than 100 µM; in the test with UO-31 renal it was 33.2 µM.

In the case of `CCCC(O)c1cn(C(NC(=O)c2ccccc2)P(=O)(OCC)OCC)nn1` (stereo unspecified), the TGI with LOX IMVI melanoma, with SF-539 CNS, with 786-0 renal, with OVCAR-3 ovarian, in the test on MOLT-4 leukemia and in the test on SF-295 CNS was greater than 100 µM in each case. For the same molecule, the TGI in the test with IGROV1 ovarian, with A549 NSCLC and in the test on UO-31 renal was greater than 100 µM in each case.

`Oc1ccc(Cl)cc1-c1cc(-c2ccccc2)nc(NCN2CCCCC2)n1`: the TGI in the test with LOX IMVI melanoma, in the test on SF-539 CNS, in the test with SK-OV-3 ovarian, in the test on 786-0 renal, in the test with OVCAR-3 ovarian and in the test with MOLT-4 leukemia was greater than 100 µM throughout. Further, the TGI in the test with IGROV1 ovarian, in the test with A549 NSCLC and in the test on UO-31 renal was greater than 100 µM throughout.

With `O=C(NC1CCCCC1)c1cc2ccccc2cc1O`, the TGI is greater than 100 µM in the test with LOX IMVI melanoma; 57.2 µM with SF-539 CNS; greater than 100 µM with SK-OV-3 ovarian; 84.5 µM in the test with 786-0 renal; greater than 100 µM in the test with SF-295 CNS; greater than 100 µM in the test on IGROV1 ovarian. In the test with UO-31 renal, this molecule gave a TGI of 99 µM.

For the molecule `O=C(O)C[C@@H]1[C@@H](O)[C@@H](O)CN2C(=O)c3ccccc3[C@H]12`, the TGI with LOX IMVI melanoma, in the test with SF-539 CNS, in the test with SK-OV-3 ovarian, with 786-0 renal, with MOLT-4 leukemia and in the test with SF-295 CNS was greater than 100 µM in each case. The TGI in the test with IGROV1 ovarian, with A549 NSCLC and with UO-31 renal was greater than 100 µM in each case.

For the molecule `CN(CCO)CCCC1COc2ccccc2O1` (stereo unspecified), the TGI in the test on SF-539 CNS, with SK-OV-3 ovarian, in the test with 786-0 renal, in the test with OVCAR-3 ovarian, with MOLT-4 leukemia and with SF-295 CNS was greater than 100 µM in each case. Moreover, the TGI in the test on IGROV1 ovarian, in the test with A549 NSCLC and in the test on UO-31 renal was greater than 100 µM in each case.

For `O=c1oc2ccc([N+](=O)[O-])cc2c(Nc2ccc3c(c2)Sc2ccccc2O3)c1[N+](=O)[O-]`, the TGI in the test with LOX IMVI melanoma turned out to be 36.2 µM; in the test on SF-539 CNS, 37.7 µM; in the test on SK-OV-3 ovarian it was 47.6 µM; in the test on 786-0 renal, 39.9 µM; in the test with OVCAR-3 ovarian it was 31 µM; in the test on SF-295 CNS, 94.3 µM. Also, the figures for the TGI in the test with IGROV1 ovarian, with A549 NSCLC and in the test on UO-31 renal were 54.9 µM, 73.9 µM and 37.8 µM, respectively.

For `Brc1ccc2c3c1[C@H]1O[C@H]1c1cccc(c1-3)[C@@H]1O[C@H]21`, the TGI in the test with LOX IMVI melanoma is 9.39 µM; in the test on SK-OV-3 ovarian, 35.1 µM; in the test with 786-0 renal, 34.6 µM; in the test with MOLT-4 leukemia it was greater than 100 µM; with SF-295 CNS it was 29.3 µM; with A549 NSCLC it was 49.4 µM. The same molecule registered a TGI with UO-31 renal of 32.1 µM.

Take `CCCCCCCC(CC(=O)NC(CO)C(=O)NC(CO)CC(C)C)OC(=O)CC(CCCCCCC)OC(=O)CC(CCCCCCC)OC1OC(C)C(O)C(OC2OC(C)C(O)C(O)C2OC(C)=O)C1O` (stereo unspecified): the TGI amounted to 23.5 µM in the test with SF-539 CNS; 30.3 µM with SK-OV-3 ovarian; 17.6 µM with 786-0 renal; 25.6 µM in the test with OVCAR-3 ovarian; 10.5 µM with MOLT-4 leukemia; 21.7 µM with SF-295 CNS. The values for the TGI in the test with IGROV1 ovarian, in the test with A549 NSCLC and in the test with UO-31 renal were 23 µM, 25.9 µM and 30.7 µM, respectively.

Regarding `CCCCCCNC(=O)CCC(NC(=O)c1ccc(N(C)Cc2cnc3nc(N)nc(N)c3n2)cc1)C(=O)NCCCCCC` (stereo unspecified), the TGI was greater than 100 µM with LOX IMVI melanoma; 37.2 µM in the test on SK-OV-3 ovarian; greater than 100 µM with 786-0 renal; greater than 100 µM in the test on OVCAR-3 ovarian; greater than 100 µM with MOLT-4 leukemia; 30.3 µM in the test with SF-295 CNS. For the same molecule, the TGI in the test on IGROV1 ovarian was 97.2 µM; with A549 NSCLC it was greater than 100 µM; in the test on UO-31 renal, greater than 100 µM.

As to `NNc1nncc2[nH]cnc12`, the TGI with SF-539 CNS, with 786-0 renal, with OVCAR-3 ovarian, with MOLT-4 leukemia, in the test on SF-295 CNS and in the test with IGROV1 ovarian was greater than 100 µM in each case. The TGI with A549 NSCLC and in the test on UO-31 renal was greater than 100 µM each time.

Regarding `Nc1ccccc1.[C-]#[O+].[C-]#[O+].[C-]#[O+].[C-]#[O+].[C-]#[O+].[Cr]`, the GI50 in the test on LOX IMVI melanoma is 3.15 µM; in the test with SF-539 CNS, 3.28 µM; in the test with SK-OV-3 ovarian it was 5.66 µM; with OVCAR-3 ovarian, 3.18 µM; with MOLT-4 leukemia it was 3.26 µM; in the test with SF-295 CNS, greater than 10 µM. The GI50 in the test on IGROV1 ovarian is 5.53 µM; with A549 NSCLC, 5.18 µM; with UO-31 renal, 1860 nM. For the same molecule, the TGI in the test on LOX IMVI melanoma is 8.56 µM; with SF-539 CNS it was greater than 10 µM; with SK-OV-3 ovarian it was greater than 10 µM; in the test with OVCAR-3 ovarian, greater than 10 µM; in the test with MOLT-4 leukemia it was greater than 10 µM; with SF-295 CNS, greater than 10 µM. For the same molecule, the TGI with IGROV1 ovarian was greater than 10 µM; in the test with A549 NSCLC it was greater than 10 µM; in the test on UO-31 renal, 9.66 µM.

`COc1ccc2c(c1)C/C(=C\c1cccc3ccccc13)C2=O`: the TGI was greater than 100 µM in the test with LOX IMVI melanoma; 44.8 µM with SF-539 CNS; greater than 100 µM in the test with SK-OV-3 ovarian; 77.7 µM in the test with 786-0 renal; 50.4 µM in the test on OVCAR-3 ovarian; greater than 100 µM in the test on MOLT-4 leukemia. Also, the TGI with IGROV1 ovarian, in the test with A549 NSCLC and in the test on UO-31 renal was greater than 100 µM throughout.
